Literature values, collected in paper PMC4220649 (Blood Cancer Journal, 2014).

Tested on: patients with lymphoma
Details: IV bortezomib in lymphoma; cited from earlier work

## CC(C)C[C@H](NC(=O)[C@H](Cc1ccccc1)NC(=O)c1cnccn1)B(O)O [bortezomib]
  Grade 3 PN rates: 3–13%
  Overall rates of PN: 17–55%
